Laboratory results: patent publication EP0808325B1, “[…] […] SERIES FOR […] GABA RECEPTOR” (priority 1994, dated 1996)
pIC50: −log10 of the molar value.

Legend:
mice = assay: elevated plus-maze; assay type: in vivo, N.I.H. Swiss-Webster mice
Description: The theoretical basis for the elevated plus-maze test is similar to that of the light/dark transition test. As described by Pellow et al., J. Neurosci. Meth 14:149-167 (1985), the elevated plus-maze apparatus is designed to utilize the mice's natural aversion to open spaces. The apparatus consists of two open-arms and two enclosed-arms. The elevated plus-maze test allows for two measures of anxiety, the number of entries into the open-arms and the time spent on the open-arms, both expressed as a percentage of the total number of entries and time spent in/on both the open-arms and enclosed-arms.
Male N.I.H. Swiss-Webster mice (Harlan, Indianapolis, IN) weighing 15-20 g were housed four per cage in polyethylene cages with sawdust bedding. The colony room was environmentally controlled (22°C) with a 12 hr light/dark cycle (0600-1800 hr). Food and water were available ad libitum, except during testing. The experiments were run from 0700-1500 hr and groups were counterbalanced for time of day effects. Mice were only administered drug or vehicle once.
The method used was previously described (Lister, Psychopharmacol. 92:180-185 (1987)). The apparatus included two open arms perpendicular to two enclosed arms elevated 50 cm from the floor. Each arm was 50 cm long and the walls of the enclosed arms were 40 cm tall. The maze was made completely of black plexiglass. Incandescent 200 W light bulbs were above each of the open arms to produce a strong contrast between the open arms and the enclosed arms.
Ten minutes after an injection, the N.I.H. Swiss-Webster mice were placed in the center of the plus-maze facing an open arm. During the 5 min test period, the number of entries onto the open arms and the enclosed arms, and the time spent in the open arms and enclosed arms were measured. All four paws had to be within an arm for the dependent variable to be measured. Therefore, the time spent in the center of the maze is not counted, so the total time spent in the open arms and the enclosed arms may not equal 5 min. […]

[1] = test system: metrazol induced convulsions; assay: animal or person; assay type: in vivo, mice; conditions: IP
Method: Experiments were also performed to determine the physiological relevance of neuroactive steroid and GABA receptor interactions by assessing the ability of the compounds of and used in the invention to prevent metrazol induced convulsions in mice. […] The time to onset of myoclonus (presence of forelimb clonic activity) induced by metrazol was determined by observing each mouse for a period of 30 minutes. […]
The anticonvulsant tests are similar to that described above. […] The number of animals with tonic and/or clonic convulsions was recorded. In the maximal electroshock test, 50 mA of current at 60 Hz was delivered through corneal electrodes for 200 msec to induce tonic seizure. The ability of compounds to abolish the tonic component was defined as the endpoint. General CNS depression potential was determined by a rotorod test 10 minutes after the injection of compounds where the number of mice staying on a rotating (6 rpm) rod for 1 minute in one of the three trials was determined. […]

GR complex = assay: modulation of [35S]TBPS binding in rat cerebral cortex P2 homogenate; parameters: species or system Sprague-Dawley rats; IMAX: unit not given here; conditions: for pIC50: concentration of compounds to inhibit 50% of control [35S]TBPS binding, 2 nM [35S]TBPS, 25°C, 90 minutes; for IMAX: maximum inhibition of [35S]TBPS binding, I* = Inactive
Method: We performed several experiments to determine the nature of the modulation of [^35S]TBPS as affected by the compounds of the invention.
These procedures were performed as follows:
Brains from male Sprague-Dawley rats were removed immediately following sacrifice and the cerebral cortices dissected over ice. […] Briefly, the cortices were gently homogenized in 0.32 M sucrose followed by centrifugation at 1000 x g for 10 minutes. The supernatant was collected and centrifuged at 9000 x g for 20 minutes. The resultant P2 pellet was suspended as a 10% (original wet weight/volume) suspension in 50 mM Na/K phosphate buffer (pH 7.4) 200 mM NaCI to form the homogenate.
One hundred microliter […] aliquots of the P2 homogenate (0.5 milligrams (mg) protein) were incubated with 2 nanomolar (nM) [^35S]TBPS (70-110 curies/millimole;, New England Nuclear, Boston, MA) in the presence or absence of the naturally occurring steroids or their synthetic derivatives to be tested. The tested compounds were dissolved in dimethylsulfoxide (Baker Chem. Co., Phillipsbury, NJ) and added to the incubation mixture in 5 µL aliquots. The incubation mixture was brought to a final volume of 1 mL with buffer. Nonspecific binding was defined as binding in the presence of […]. The effect and specificity of GABA (Sigma Chem. Co., St. Louis, MO) was evaluated by performing all assays in the presence of GABA plus (+)bicuculline (Sigma Chem. Co.). Incubations maintained at 25°C for 90 minutes (steady state conditions) were terminated by rapid filtration through glass fiber filters (No. 32, Schleicher and Schuell, Keene, NH). Filter-bound radioactivity was quantitated by liquid scintillation spectrophotometry.
Various compounds were screened to determine their potential as modulators of [^35S]TBPS binding in vitro. These assays were performed in accordance with the above discussed procedures. […] It is an indication of a compound's in vitro potency. Maximum inhibition is an indication of a compound's in vitro efficacy.

[2] = 50% hpbcd, 10 mg/kg, 10 minutes prior to metrazol (85 mg/kg)

| SMILES | pIC50 (GR complex; no unit printed) | IMAX (GR complex) | % Control (mice; IP, 50% hpbcd, 10 mg/kg) | % Protected [1, 2] | also measured |
| --- | --- | --- | --- | --- | --- |
| C#C[C@@]1(O)CC[C@@]2(C)[C@H](CC[C@@H]3[C@@H]2CC[C@]2(C)[C@@H](C(C)O)CC[C@@H]32)C1 (stereo partly drawn) [3α,20-Dihydroxy-3β-ethynyl-5β-pregnane] |  |  |  |  | % Control (mice; IP, dmso, 10 mg/kg): 178% |
| CCC(O)C1CCC2C3CCC4CC(C)(O)CCC4(C)C3CCC12C (stereo not drawn) [3α,20α-Dihydroxy-3β,21-dimethyl-5α-pregnane] | 6.29 | 48 |  |  | % Control (mice; IP, dmso, 10 mg/kg): 73%; % Protected ([1]; dmso, 10 mg/kg): 0% |
| CC(O)C1CCC2C3CCC4CC(C)(O)CCC4(C)C3CCC12C (stereo not drawn) [3α,20α-dihydroxy-3β-methyl-5α-pregnane] | 6.78 | 52 |  |  | % Control (mice; IV, micro soln., 10 mg/kg): 174.5%; % Protected ([1]; micro soln., 100 mg/kg): 60% |
| C#C[C@@]1(O)CC[C@@]2(C)[C@H](CC[C@@H]3[C@@H]2CC[C@]2(C)[C@@H](C(=O)COC(C)=O)CC[C@@H]32)C1 [3α,21-Dihydroxy-3β+ethynyl-5β-pregnan-20-one 21-acetate] | 6.60 | 101 | 159% | 62.5% |  |
| C[C@]12CC[C@H]3[C@@H](CC[C@@H]4C[C@@](O)(C(F)(F)F)CC[C@@H]43)[C@@H]1CC[C@@H]2C(=O)CO [3α,21-Dihydroxy-3β-trifluoromethyl-5β-19-norpregnan-20-one] | 6.61 | 100 | 140% | 118.8% |  |
| C[C@]12CC[C@](O)(CF)C[C@@H]1CC[C@@H]1[C@@H]2CC[C@]2(C)[C@@H](C(=O)CO)CC[C@@H]12 [3α,21-dihydroxy-3β-fluoromethyl-5α-pregnan-20-one] | 6.23 | 101 | 109% | 25% |  |
| C[C@@]1(O)CC[C@@]2(C)[C@@H](CC[C@@H]3[C@@H]2CC[C@]2(C)[C@@H](C(=O)COC(=O)CCC(=O)[O-])CC[C@@H]32)C1.[Na+] [3α,21-dihydroxy-3β-methyl-5α-pregnan-20-one 21-Hemisuccinate, sodium salt] |  | 104 |  |  | % Protected ([1]; micro soln., 10 mg/kg): 11.11%; pIC50 (GR complex; unit inferred, sodium salt): 6.68 |
| C[C@@]1(O)CC[C@@]2(C)[C@@H](CC[C@@H]3[C@@H]2CC[C@]2(C)[C@@H](C(=O)COC(=O)CCC(=O)O)CC[C@@H]32)C1 [3α,21-dihydroxy-3β-methyl-5α-pregnan-20-one 21-hemisuccinate] | 6.62 | 92 |  |  | % Protected ([1]; water, 10 mg/kg): 37.5% |
| C[C@@]1(O)CC[C@@]2(C)[C@@H](CC[C@@H]3[C@@H]2CC[C@]2(C)[C@@H](C(=O)CO)CC[C@@H]32)C1 [3α,21-dihydroxy-3β-methyl-5α-pregnan-20-one] | 6.59 | 96 |  | 87.5% |  |
| CC12CCC(O)(C(F)(F)F)CC1CCC1C2CCC2(C)C(C(=O)COC(=O)C=CC(=O)[O-])CCC12.[Na+] (stereo not drawn) [3α,21-dihydroxy-3β-trifluoromethyl-5β-pregnan-20-one 21 hemifumarate sodium salt] | 6.26 | 102 |  |  | % Control (mice; IP, water, dose column prints 50% hpbcd): 126%; % Protected ([1]; water, 10 mg/kg): 50% |
| CC(=O)OCC(=O)[C@H]1CC[C@H]2[C@@H]3CC[C@H]4C[C@H](O)CC[C@]4(C)[C@H]3CC[C@]12C [3α,21-dihydroxy-5α-pregnan-20-one 21-acetate] | 7.12 | 99 | 133% | 50% |  |
| C[C@]12CC[C@@H](O)C[C@@H]1CC[C@@H]1[C@@H]2CC[C@]2(C)[C@@H](C(=O)COC(=O)CCC(=O)[O-])CC[C@@H]12.[Na+] [3α,21-dihydroxy-5α-pregnan-20-one 21-hemisuccinate, sodium salt] |  | 92 |  |  | % Protected ([1]; water, 60 mg/kg): 100%; pIC50 (GR complex; unit inferred, sodium salt): 6.60 |
| CC(=O)OCC(=O)[C@H]1CC[C@H]2[C@@H]3CC[C@@H]4C[C@H](O)CC[C@]4(C)[C@H]3CC[C@]12C [3α,21-dihydroxy-5β-pregnan-20-one 21-acetate] | 6.92 | 49 |  | 25% |  |
| CC(=O)[C@H]1CC[C@H]2[C@@H]3CC[C@H]4C[C@](O)(C(F)(F)F)CC[C@]4(C)[C@H]3CC[C@]12C [3α-Hydroxy-3β-trifluoromethyl-5α-pregnan-20-one] | 6.61 | 44 |  | 62.5% |  |
| CC(=O)C1CCC2C3CCC4CC(O)(C(F)(F)F)CCC4(C)C3C(=O)CC12C (stereo not drawn) [3α-Hydroxy-3β-trifluoromethyl-5β-pregnan-11,20-dione] |  |  | 112% |  |  |
| C=C(C)C#CC1(O)CCC2(C)C(CCC3C2CCC2(C)C(C(C)=O)CCC32)C1 (stereo not drawn) [3α-hydroxy-3β-(3'-methyl-but-3'-en-1'-ynyl)-5α-pregnan-20-one] | 7.06 | 95 | 141% | 87.5% |  |
| CC(=O)[C@H]1CC[C@H]2[C@@H]3CC[C@H]4C[C@](C)(O)CC[C@@H]4[C@H]3CC[C@]12C [3α-hydroxy-3β-methyl-5α-19-nor-pregnan-20-one] | 7.04 | 80 |  |  | % Protected ([1]; micro soln., 10 mg/kg): 37.5% |
| CC(=O)[C@H]1CC[C@H]2[C@@H]3CC[C@@H]4C[C@@](O)(C#CC5CC5)CC[C@]4(C)[C@H]3CC[C@]12C [3β-Cyclopropylethynyl-3α-hydroxy-5β-pregnan-20-one] | 7.66 | 94 |  | 87.5% | pIC50 (GR complex; no unit printed, listed as 3β-(cyclopropyl)ethynyl-3α-hydroxy-5β-pregnan-20-one): 7.49; IMAX (GR complex; listed as 3β-(cyclopropyl)ethynyl-3α-hydroxy-5β-pregnan-20-one): 97 |
| C#C[C@@]1(O)CC[C@@]2(C)[C@H](CC[C@H]3[C@@H]4CC[C@H](C(C)=O)[C@@]4(C)C=C[C@@H]32)C1 [3β-Ethynyl-3α-hydroxy-5β-pregn-11-en-20-one] |  |  | 233% | 75% |  |
| C#C[C@@]1(O)CC[C@@]2(C)[C@H](CC[C@H]3[C@@H]4CC[C@H](C(C)=O)[C@@]4(C)CC(=O)[C@@H]32)C1 [3β-Ethynyl-3α-hydroxy-5β-pregnan-11,20-dione] |  |  |  |  | % Control (mice; IP, 50% hpbcd, 5 mg/kg): 235.9% |
| C#C[C@@]1(O)CC[C@@]2(C)[C@H](CC[C@@H]3[C@@H]2CC[C@]2(C)[C@@H](C(=O)COC(=O)CCC(=O)OCC(=O)[C@H]4CC[C@H]5[C@@H]6CC[C@@H]7C[C@@](O)(C#C)CC[C@]7(C)[C@H]6CC[C@]45C)CC[C@@H]32)C1 [Bis (3α,21-dihydroxy-3β-ethynyl-5β-pregnan-20-one) 21-hemisuccinate] | 7.17 | 56 |  | 37.5% |  |
